Assays:
Format in all cases: cell-based, human
MOLT-4 = assay: NCI five-dose assay; conditions: MOLT-4, Leukemia
SR = assay: NCI five-dose assay; conditions: Leukemia
A549/ATCC = assay: NCI five-dose assay; conditions: Non-small cell lung cancer
HOP-92 = assay: NCI five-dose assay; conditions: HOP-92, Non-small cell lung cancer
COLO205 = assay: NCI five-dose assay; conditions: COLO205, Colon cancer
HCC-2998 = assay: NCI five-dose assay; conditions: HCC-2998, Colon cancer
KM12 = assay: NCI five-dose assay; conditions: KM12, Colon cancer
SNB-19 = assay: NCI five-dose assay; conditions: SNB-19, CNS cancer
U251 = assay: NCI five-dose assay; conditions: Homo sapiens, U-251, U251, CNS cancer
MALME-3M = assay: NCI five-dose assay; conditions: Melanoma
SK-MEL-28 = assay: NCI five-dose assay; conditions: SK-MEL-28, Melanoma
SK-MEL-5 = assay: NCI five-dose assay; conditions: SK-MEL-5, Melanoma
UACC-257 = assay: NCI five-dose assay; conditions: UACC-257, Melanoma
UACC-62 = assay: NCI five-dose assay; conditions: UACC-62, Melanoma
IGROV1 = assay: NCI five-dose assay; conditions: IGROV1, Ovarian cancer
OVCAR-3 = assay: NCI five-dose assay; conditions: OVCAR-3, Ovarian cancer
OVCAR-8 = assay: NCI five-dose assay; conditions: OVCAR-8, Ovarian cancer
ACHN = assay: NCI five-dose assay; conditions: Renal cancer
RXF393 = assay: NCI five-dose assay; conditions: RXF393, Renal cancer
SN12C = assay: NCI five-dose assay; conditions: Renal cancer
PC-3 = assay: NCI five-dose assay; conditions: PC-3, Prostate cancer
MCF7 = assay: NCI five-dose assay; conditions: MCF7, Breast cancer
HS 578T = assay: NCI five-dose assay; conditions: Breast cancer
MDA-MB-468 = assay: NCI five-dose assay; conditions: MDA-MB-468, Breast cancer
CNS cancer subpanel = assay: NCI five-dose assay, subpanel mean; conditions: Homo sapiens; average sensitivity of all cell lines of the CNS cancer subpanel; read-out: GI50 Subpanel MID b
Melanoma subpanel = assay: NCI five-dose assay, subpanel mean
Ovarian cancer subpanel = assay: NCI five-dose assay, subpanel mean
[1] = Homo sapiens, 48 h, read-out: LC50 (the source's name)
[2] = Homo sapiens, read-out: GI50 Conc. per Cell Lines

Q: Which results are given for O/N=C(\CSc1nnc(-c2c[nH]c3ccccc23)n1-c1ccccc1)c1ccc(Br)cc1 [Compound 7i, (Z)-2-((5-(1H-Indol-3-yl)-4-phenyl-4H-1,2,4-triazol-3-yl)thio)-1-(4-bromophenyl) Ethanone Oxime]?
A: CC50 (MOLT-4; [1]): > 100 µM; GI50 (MOLT-4; [2]): 2.09 µM; TGI Conc. per Cell Lines (MOLT-4): 4.80 µM; CC50 (SR; [1]): > 100 µM; TGI Conc. per Cell Lines (SR): >100 µM; CC50 (A549/ATCC; [1]): 31 µM; GI50 (A549/ATCC; [2]): 2.49 µM; TGI Conc. per Cell Lines (A549/ATCC): 6.66 µM; TGI Conc. per Cell Lines (HOP-92): 24.10 µM; CC50 (HOP-92; [1]): > 100 µM; GI50 (HOP-92; [2]): 3.66 µM; TGI Conc. per Cell Lines (COLO205): 16.60 µM; CC50 (COLO205; Homo sapiens, COLO 205, 48 h, read-out: LC50 (the source's name)): > 100 µM; GI50 (COLO205; Homo sapiens, COLO 205, read-out: GI50 Conc. per Cell Lines): 3.8 µM; TGI Conc. per Cell Lines (HCC-2998): 12.30 µM; CC50 (HCC-2998; [1]): 35.8 µM; GI50 (HCC-2998; [2]): 3.36 µM; CC50 (KM12; [1]): > 100 µM; GI50 (KM12; [2]): 4.15 µM; TGI Conc. per Cell Lines (KM12): 29.20 µM; CC50 (SNB-19; [1]): 84.5 µM; GI50 (SNB-19; [2]): 4.32 µM; TGI Conc. per Cell Lines (SNB-19): 19.80 µM; CC50 (U251; 48 h, read-out: LC50 (the source's name)): 51.2 µM; GI50 (U251; read-out: GI50 Conc. per Cell Lines): 4.38 µM; CC50 (MALME-3M; [1]): 87 µM; GI50 (MALME-3M; [2]): 3.22 µM; TGI Conc. per Cell Lines (MALME-3M): 14.30 µM; CC50 (SK-MEL-28; [1]): 44.8 µM; GI50 (SK-MEL-28; [2]): 3.4 µM; TGI Conc. per Cell Lines (SK-MEL-28): 12.50 µM; CC50 (SK-MEL-5; [1]): 35.8 µM; GI50 (SK-MEL-5; [2]): 3.55 µM; TGI Conc. per Cell Lines (SK-MEL-5): 12.80 µM; CC50 (UACC-257; [1]): 72.6 µM; GI50 (UACC-257; [2]): 3.87 µM; TGI Conc. per Cell Lines (UACC-257): 17.50 µM; CC50 (UACC-62; [1]): 7.93 µM; GI50 (UACC-62; [2]): 1.77 µM; TGI Conc. per Cell Lines (UACC-62): 3.74 µM; CC50 (IGROV1; Homo sapiens, IGROV-1, 48 h, read-out: LC50 (the source's name)): 38.3 µM; GI50 (IGROV1; Homo sapiens, IGROV-1, read-out: GI50 Conc. per Cell Lines): 3.41 µM; TGI Conc. per Cell Lines (IGROV1): 11.70 µM; LC50 (OVCAR-3; Homo sapiens, 48 h): > 100 µM; GI50 (OVCAR-3; [2]): 4.98 µM; TGI Conc. per Cell Lines (OVCAR-3): 23.8 µM; CC50 (OVCAR-8; [1]): > 100 µM; GI50 (OVCAR-8; [2]): 2.45 µM; TGI Conc. per Cell Lines (OVCAR-8): 6.50 µM; LC50 (ACHN; Homo sapiens, 48 h): 24.9 µM; GI50 (ACHN; [2]): 2.53 µM; TGI Conc. per Cell Lines (ACHN): 7.05 µM; LC50 (concentration killing 50% of cells) (RXF393; Homo sapiens, RXF 393, 48 h): 7.65 µM; GI50 (RXF393; Homo sapiens, RXF 393, read-out: GI50 Conc. per Cell Lines): 1.75 µM; TGI Conc. per Cell Lines (RXF393): 3.65 µM; CC50 (SN12C; [1]): 30.1 µM; GI50 (SN12C; [2]): 2.52 µM; TGI Conc. per Cell Lines (SN12C): 7.97 µM; CC50 (PC-3; [1]): > 100 µM; GI50 (PC-3; [2]): 2.15 µM; TGI Conc. per Cell Lines (PC-3): 4.96 µM; LC50 (MCF7; Homo sapiens, 48 h): 63.6 µM; GI50 (MCF7; [2]): 3.49 µM; TGI Conc. per Cell Lines (MCF7): 15.3 µM; TGI Conc. per Cell Lines (HS 578T): 11.90 µM; LC50 (HS 578T; Homo sapiens, 48 h): > 100 µM; GI50 (HS 578T; [2]): 2.84 µM; LC50 (MDA-MB-468; Homo sapiens, 48 h): 6.32 µM; GI50 (MDA-MB-468; [2]): 1.72 µM; TGI Conc. per Cell Lines (MDA-MB-468): 3.30 µM; GI50 (CNS cancer subpanel): 3.15 µM; GI50 (Melanoma subpanel; Homo sapiens, average sensitivity of all cell lines of the Melanoma subpanel, read-out: GI50 Subpanel MID b): 2.89 µM; GI50 Selectivity Ratio (MID a/MID b) (Melanoma subpanel; Melanoma subpanel): 0.97; GI50 (Ovarian cancer subpanel; Homo sapiens, average sensitivity of all cell lines of the Ovarian cancer subpanel, read-out: GI50 Subpanel MID b): 2.79 µM; GI50 Selectivity Ratio (MID a/MID b) (Ovarian cancer subpanel; Ovarian cancer subpanel): 1.00

Source: PMC11859928, “Design, Synthesis, and Antiproliferative Activity of Novel Indole/1,2,4-Triazole Hybrids as Tubulin Polymerization Inhibitors” (Pharmaceuticals, 2025)
